Assay results: patent US8551999B2, “Heterocyclic compound and pharmaceutical composition thereof” (Otsuka Pharmaceutical Co., Ltd., priority 2007, dated 2013)

Q: With Br.CN(c1ccc(C(F)(F)F)cc1)c1ccc(Oc2ccc3c(c2)cc(C(=O)N2CCN(Cc4ccncc4)CC2)n3C)nc1 [Example 337, (1-Methyl-5-{5-[methyl(4-trifluoromethylphenyl)amino]pyridin-2-yloxy}-1H-indol-2-yl)(4-pyridin-4-ylmethylpiperazin-1-yl)-methanone hydrobromide] as the compound, how does the melting point read?
A: 167 to 174 °C

Q: With Br.CN(c1ccc(C(F)(F)F)cc1)c1ccc(Oc2ccc3c(c2)cc(C(=O)N2CCN(Cc4ccccc4)CC2)n3C)nc1 [Example 336, (4-Benzylpiperazin-1-yl)(1-methyl-5-{5-[methyl(4-trifluoromethyl-phenyl)amino]pyridin-2-yloxyl}-1H-indol-2-yl)methanone hydrobromide] as the compound, how does the melting point read?
A: 212 to 218 °C

Q: Which melting point does the source give for Br.Cn1c(C(=O)N2CCN(Cc3ccc4c(c3)OCO4)CC2)cc2cc(Oc3ccc(NS(=O)(=O)c4ccc(C(F)(F)F)cc4)cn3)ccc21 [Example 65, N-{6-[2-(4-Benzo[1,3]dioxol-5-ylmethylpiperazine-1-carbonyl)-1-methyl-1H-indol-5-yloxy]pyridin-3-yl}-4-trifluoromethylbenzene-sulfonamide hydrobromide] here?
A: 210 to 212 °C

Q: Which melting point does the source give for Br.Br.Cn1c(C(=O)N2CCN(Cc3cccnc3)CC2)cc2cc(Oc3ccc(NC(=O)c4ccc(Cl)c(Cl)c4)cn3)ccc21 [Example 563, 3,4-Dichloro-N-{6-[1-methyl-2-(4-pyridin-3-ylmethylpiperazine-1-carbonyl)-1H-indol-5-yloxy]pyridin-3-yl}benzamide dihydrobromide] here?
A: 249 to 252 °C (dec.)

Q: With Cl.Cn1c(C(=O)N2CCN(Cc3ccc(OCC(F)(F)F)cc3)CC2)cc2ccc(Oc3ccc(NC(=O)c4ccc(C(F)(F)F)nc4)cn3)cc21 as the compound, how does the melting point read?
A: 195.4 °C

Q: Which melting point does the source give for Br.Cn1c(C(=O)N2CCN(Cc3ccc(OC(F)F)cc3)CC2)cc2cc(Oc3ccc(NC(=O)c4ccc(C(F)(F)F)cc4)cn3)ccc21 [Example 400, N-(6-{2-[4-(4-Difluoromethoxybenzyl)piperazine-1-carbonyl]-1-methyl-1H-indol-5-yloxy}pyridin-3-yl)-4-trifluoromethylbenzamide hydrobromide] here?
A: 229 to 231 °C

Q: For Br.COc1ccc(CN2CCN(C(=O)c3cc4ccc(Oc5ccc(N(C)C(=O)c6ccc(C(F)(F)F)cc6)cn5)cc4n3C)CC2)cc1 [Example 322, N-(6-{2-[4-(4-Methoxybenzyl)piperazine-1-carbonyl]-1-methyl-1H-indol-6-yloxy}pyridin-3-yl)-N-methyl-4-trifluoromethylbenzamide hydrobromide], which melting point is on record?
A: 233 to 235 °C

Q: For CN(c1ccc(Oc2ccc3cc(C(=O)N4CCN(Cc5ccc(OCC6CC6)cc5)CC4)n(C)c3c2)nc1)S(=O)(=O)c1ccc(Cl)c(Cl)c1 [Example 514, 3,4-Dichloro-N-(6-{2-[4-(4-cyclopropylmethoxybenzyl)piperazine-1-carbonyl]-1-methyl-1H-indol-6-yloxy}pyridin-3-yl)-N-methyl-benzenesulfonamide], which melting point is on record?
A: 194.1 to 195.8 °C

Q: With Br.CCCOc1ccc(CN2CCN(C(=O)c3cc4ccc(Oc5ccc(NC(=O)c6ccc(Cl)c(Cl)c6)cn5)cc4n3C)CC2)cc1 [Example 256, 3,4-Dichloro-N-(6-{1-methyl-2-[4-(4-propoxybenzyl)piperazine-1-carbonyl]-1H-indol-6-yloxy}pyridin-3-yl)benzamide hydrobromide] as the compound, how does the melting point read?
A: 239.2 to 240.4 °C

Q: Which melting point does the source give for Br.Cn1c(C(=O)N2CCN(Cc3ccc(OCCF)cc3)CC2)cc2ccc(Oc3ccc(NC(=O)c4ccc(Cl)c(Cl)c4)cn3)cc21 [Example 464, 3,4-Dichloro-N-[6-(2-{4-[4-(2-fluoroethoxy)benzyl]piperazine-1-carbonyl}-1-methyl-1H-indol-6-yloxy)pyridin-3-yl]benzamide hydrobromide] here?
A: 232.4 to 234.2 °C

Q: For COCc1ccc(CN2CCN(C(=O)c3cc4cc(Oc5ccc(N(C)C(=O)c6ccc(Cl)c(Cl)c6)cn5)ccc4n3C)CC2)cc1.O=C(O)/C=C\C(=O)O [Example 376, 3,4-Dichloro-N-(6-{2-[4-(4-methoxymethylbenzyl)piperazine-1-carbonyl]-1-methyl-1H-indol-5-yloxy}pyridin-3-yl)-N-methyl-benzamide maleate], which melting point is on record?
A: 100 to 101 °C

Q: Which melting point does the source give for Br.C[C@H]1CN(C(=O)c2cc3ccc(Oc4ccc(NC(=O)c5ccc(OC(F)(F)F)cc5)cn4)cc3n2C)CCN1Cc1ccc(OCC(F)(F)F)cc1 [Example 293, N-[6-(1-Methyl-2-{(S)-3-methyl-4-[4-(2,2,2-trifluoroethoxy)-benzyl]piperazine-1-carbonyl}-1H-indol-6-yloxy)pyridin-3-yl]-4-trifluoromethoxybenzamide hydrobromide] here?
A: 199.4 to 203.1 °C

Q: For COc1ccc(CN2CCN(C(=O)c3cc4cc(Oc5ccc(CNC(=O)c6ccc(C(F)(F)F)cn6)cn5)ccc4n3C)CC2)cc1.O=C(O)C(=O)O.O=C(O)C(=O)O [Example 21, 5-Trifluoromethylpyridine-2-carboxylic acid (6-{2-[4-(4-methoxy-benzyl)piperazine-1-carbonyl]-1-methyl-1H-indol-5-yloxy}pyridin-3-yl)methylamide dioxalate], which melting point is on record?
A: 152 to 154 °C

Q: With CN(c1ccc(Oc2ccc3cc(C(=O)N4CCN(Cc5ccc(OCC(F)(F)F)cc5)CC4)n(C)c3c2)nc1)S(=O)(=O)c1ccc(C(F)(F)F)cc1.Cl as the compound, how does the melting point read?
A: 256.9 to 257.7 °C

Q: Which melting point does the source give for Br.COc1ccc(CN2CCN(C(=O)c3cc4cc(Oc5ccc(N(C)C(=O)c6ccc(C(F)(F)F)c(C)c6)cn5)ccc4n3C)CC2)cc1 [Example 20, N-(6-{2-[4-(4-Methoxybenzyl)piperazine-1-carbonyl]-1-methyl-1H-indol-5-yloxy}pyridin-3-yl)-3,N-dimethyl-4-trifluoromethyl-benzamide hydrobromide] here?
A: 199 to 202 °C

Q: With CCCOc1ccc(CN2CCN(C(=O)c3cc4ccc(Oc5ccc(N(C)S(=O)(=O)c6ccc(Cl)c(Cl)c6)cn5)cc4n3C)CC2)cc1 [Example 33, 3,4-Dichloro-N-methyl-N-(6-{1-methyl-2-[4-(4-propoxybenzyl)-piperazine-1-carbonyl]-1H-indol-6-yloxy}pyridin-3-yl)-benzenesulfonamide] as the compound, how does the melting point read?
A: 231.7 to 235 °C (dec.)

Q: With Br.Cn1c(C(=O)N2CCN(Cc3ccc(OC(F)(F)F)cc3)CC2)cc2ccc(Oc3ccc(NC(=O)c4ccc(Cl)c(Cl)c4)cn3)cc21 [Example 264, 3,4-Dichloro-N-(6-{1-methyl-2-[4-(4-trifluoromethoxybenzyl)-piperazine-1-carbonyl]-1H-indol-6-yloxy}pyridin-3-yl)benzamide hydrobromide] as the compound, how does the melting point read?
A: 261.6 to 264.7 °C

Q: For COc1ccc(CN2CCN(C(=O)c3cc4cc(Oc5ccc(N(C)C(=O)c6ccc(C(F)(F)F)cc6O)cn5)ccc4n3C)CC2)cc1.O=C(O)C(=O)O [Example 592, 2-Hydroxy-N-(6-{2-[4-(4-methoxybenzyl)piperazine-1-carbonyl]-1-methyl-1H-indol-5-yloxy}pyridin-3-yl)-N-methyl-4-trifluoromethyl-benzamide oxalate], which melting point is on record?
A: 171 to 173 °C

Q: Which melting point does the source give for COc1ccc(CN2CCN(C(=O)c3cc4c(C)c(Oc5ccc(NC(=O)c6ccc(C(F)(F)F)cc6)cn5)ccc4n3C)CC2)cc1 [Example 235, N-(6-{2-[4-(4-Methoxybenzyl)piperazine-1-carbonyl]-1,4-dimethyl-1H-indol-5-yloxy}pyridin-3-yl)-4-trifluoromethylbenzamide] here?
A: 219 to 221 °C

Q: Which melting point does the source give for Br.CCCc1ccc(CN2CCN(C(=O)c3cc4ccc(Oc5ccc(NC(=O)c6ccc(C(F)(F)F)cc6)cn5)cc4n3C)CC2)cc1 [Example 478, N-(6-{1-Methyl-2-[4-(4-propylbenzyl)piperazine-1-carbonyl]-1H-indol-6-yloxy}pyridin-3-yl)-4-trifluoromethylbenzamide hydrobromide] here?
A: 267 to 268.2 °C

Q: With Br.CN(C(=O)c1ccc(Cl)c(Cl)c1)c1ccc(Oc2ccc3c(c2)cc(C(=O)N2CCN(Cc4ccccc4)CC2)n3C)nc1 [Example 330, N-{6-[2-(4-Benzylpiperazine-1-carbonyl)-1-methyl-1H-indol-5-yl-oxy]pyridin-3-yl}-3,4-dichloro-N-methylbenzamide hydrobromide] as the compound, how does the melting point read?
A: 210 to 213 °C

Q: For Br.CN(C(=O)c1ccc(C(F)(F)F)cc1)c1ccc(Oc2ccc3cc(C(=O)N4CCN(Cc5ccc(OC(F)(F)C(F)F)cc5)CC4)n(C)c3c2)nc1 [Example 443, N-Methyl-N-[6-(1-methyl-2-{4-[4-(1,1,2,2-tetrafluoroethoxy)-benzyl]piperazine-1-carbonyl}-1H-indol-6-yloxy)pyridin-3-yl]-4-trifluoromethylbenzamide hydrobromide], which melting point is on record?
A: 245.4 to 247.6 °C

Q: With Br.CN(C(=O)c1ccc(C(F)(F)F)cc1Cl)c1ccc(Oc2ccc3cc(C(=O)N4CCN(Cc5ccc(OCCF)cc5)CC4)n(C)c3c2)nc1 [Example 447, 2-Chloro-N-[6-(2-{4-[4-(2-fluoroethoxy)benzyl]piperazine-1-carbonyl}-1-methyl-1H-indol-6-yloxy)pyridin-3-yl]-N-methyl-4-tri-fluoromethylbenzamide hydrobromide] as the compound, how does the melting point read?
A: 223.6 to 225.4 °C

Q: With Br.Cn1c(C(=O)N2CCN(Cc3ccc(OCC(F)F)cc3)CC2)cc2cc(Oc3ccc(NC(=O)c4ccc(Cl)c(Cl)c4)cn3)ccc21 [Example 407, 3,4-Dichloro-N-[6-(2-{4-[4-(2,2-difluoroethoxy)benzyl]piperazine-1-carbonyl}-1-methyl-1H-indol-5-yloxy)pyridin-3-yl]benzamide hydrobromide] as the compound, how does the melting point read?
A: 241 to 245 °C

Q: Which melting point does the source give for Br.Cn1c(C(=O)N2CCN(Cc3ccc(OC(F)(F)C(F)F)cc3)CC2)cc2ccc(Oc3ccc(NC(=O)c4ccc(C(F)(F)F)cc4)cn3)cc21 [Example 250, N-[6-(1-Methyl-2-{4-[4-(1,1,2,2-tetrafluoroethoxy)benzyl]-piperazine-1-carbonyl}-1H-indol-6-yloxy)pyridin-3-yl]-4-tri-fluoromethylbenzamide hydrobromide] here?
A: 279 to 282 °C (dec.)
